Results taken from patent US9132103B2, “Disinfecting agent comprising eugenol, terpineol and thymol” (Conopco, Inc., priority 2009, dated 2015).

Tested on: E. coli ATCC 10536
Experiment: Bacterial kill after 15 seconds of contact (viable E. coli count by neutralization, serial dilution and plating)
Format: cell-based
Settings: log10 of viable E. coli remaining after 15 seconds of contact; about 10^7 cells; water carrier; Table 2
Procedure: About 10^7 bacterial cells (E. coli ATCC 10536) were taken in a test tube and contacted with various compositions for a period of 15 seconds. Bacteria were taken out after 15 seconds of contact and presence of viable cells was determined by neutralization of the antimicrobial, serial dilution and plating on agar plates. The data is presented in Table-1 as log (Viable E. Coli) which is the log10 of the number of viable E. coli remaining after 15 seconds of contact. Thus if 10^4 remained, log (Viable E. coli) is 4.
The data in Table-1 is an average result of four experiments.
Various compositions as shown in Table-2 were prepared using the same procedure as used for examples 1 to 3 and the antibacterial efficacy was evaluated using the same procedure as used to evaluate Examples 1 to 3. The data on antibacterial efficacy is represented in Table-2.
Compositions as summarized in Table-3 were prepared using a similar procedure as used for Examples 1 to 3 and the antibacterial efficacy was evaluated using a procedure similar to that used for Examples 1 to 3.
The various compositions were diluted with water in a ratio of composition:water of 1:400 and then tested for antibacterial efficacy. The procedure used was similar to that used for Examples 1 to 3.
Soap bar compositions were prepared as per conventional procedure for preparing milled and plodded soap bars. […]

Molecule	Log (Viable E. coli)
Terpineol [Example 7]	6.5
Cc1ccc(C(C)C)c(O)c1 [Example 6, Thymol]	6.5
